# Measured values published in paper PMC12481576, “Barbituric Acid Derivatives as Covalent Inhibitors of Leishmania braziliensis Dihydroorotate Dehydrogenase” (Journal of Medicinal Chemistry, 2025).
# Several values for one entry are separate records, joined by “and”; a condition that tells them apart may be missing. Equal entries are not always repeated. Where two headings read alike, the source gives them in different places.
# Tests used:
# HsDHODH = target: T1, HsDHODH (Homo sapiens, UniProt Q02127); assay: Selectivity assay: HsDHODH single-dose inhibition (DCIP reduction); type: biochemical
# T1 construct: made in house
# T1 sequence (Q02127 whole entry): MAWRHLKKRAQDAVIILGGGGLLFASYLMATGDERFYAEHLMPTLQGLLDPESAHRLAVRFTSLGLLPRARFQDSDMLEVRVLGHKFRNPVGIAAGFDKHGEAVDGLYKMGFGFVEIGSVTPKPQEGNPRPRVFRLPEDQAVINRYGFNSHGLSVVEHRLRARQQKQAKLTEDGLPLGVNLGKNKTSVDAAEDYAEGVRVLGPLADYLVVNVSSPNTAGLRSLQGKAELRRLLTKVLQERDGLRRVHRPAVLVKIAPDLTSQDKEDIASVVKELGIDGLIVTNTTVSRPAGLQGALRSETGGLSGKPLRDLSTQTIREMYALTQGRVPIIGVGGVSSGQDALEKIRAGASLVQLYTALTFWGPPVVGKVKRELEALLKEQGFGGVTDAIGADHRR
# In short: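 Single-dose format, run in triplicate: His-purified HsDHODH (20 nM final) started by adding reaction buffer, absorbance at 610 nm (DCIP) recorded for 60 s at 3-s intervals. Initial rates converted to percent of no-compound control activity.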
# [1] = system: Leishmania braziliensis promastigotes; assay: Leishmanicidal activity, promastigote growth (SYBR Green, 72 h); type: cell-based, Leishmania (V.) braziliensis (MHOM/BR/1975/M2904); details: L. braziliensis promastigotes, max 200 μM
# In short: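 Cultures at 4 × 10^6 parasites/mL were exposed 72 h to serially decreasing compound levels, top 200 μM, with final DMSO 0.5% and medium-only control.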
# [2] = Cell viability / cytotoxicity assay (PrestoBlue, 72 h); type: cell-based; details: human; THP-1 cell line, 72 h, max 200 μM; read-out: CC50
# In short: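 Viability was measured with PrestoBlue fluorescence (560/590 nm, 2 h) after 72 h compound exposure at 37 °C. Test concentrations descended from 200 μM. The THP-1 monocytes had first been differentiated with 150 ng/mL phorbol myristate acetate for 48 h, then rested 24 h.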
# in vitro [3] = details: for recovery at 6 h, 10 µM / Papp: PAMPA; for recovery at 6 h, 10 µM / Avg Log Pe (cm/sec) / Avg Pe / Pe (nm/sec) n=1 / % Recovery n=1 / Pe (nm/sec) n=2 / % Recovery n=2: PBS pH 7.4/7.4, 6h at room temperature; for Papp: pH 7.4, permeability, PBS pH 7.4, 10 μM, 6 h; for recovery at 6 h, 10 µM / Avg Log Pe (cm/sec) / Avg Pe / LogPe (cm/sec) n1 / LogPe (cm/sec) n2 / % Recovery n=1 / % Recovery n=2: 10µM; for LogPe (cm/sec) n1: replicate n1, calculation section; for LogPe (cm/sec) n1 / LogPe (cm/sec) n2: PBS pH 7.4/7.4, 6h; for LogPe (cm/sec) n2: replicate n2, calculation section; for Pe (nm/sec) n=1 / % Recovery n=1: replicate n=1; for Pe (nm/sec) n=1 / Pe (nm/sec) n=2: 10µM (5% DMSO), LC-MS/MS; for Pe (nm/sec) n=2 / % Recovery n=2: replicate n=2
# In short: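 Compounds at 10 μM final (5% DMSO) in PBS pH 7.4 in donor wells, PBS pH 7.4 acceptor, duplicate; incubated 6 h at room temperature. Donor, acceptor and initial donor (T0) concentrations quantified by LC-MS/MS.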
# [4] = for Calculated T-half (min), Average / Calculated T-half (min), n=1 / Calculated T-half (min), n=2: mouse liver microsomes (CD1 male), 0.4 mg/ml protein, test conc 1 µM; for Calculated T-half (min), Average: average of n=1 and n=2; for Calculated T-half (min), n=1: replicate n=1; for Calculated T-half (min), n=2: replicate n=2; for Modified T-half (min), Average / Remarks (mouse microsomal stability study) / mouse liver microsomes T-half / Raw data: analyte peak area, T=0 / Raw data: analyte peak area, T=5 / Raw data: analyte peak area, T=10 / Raw data: analyte peak area, T=20 / Raw data: analyte peak area, T=30 / Raw data: analyte peak area, T=60: mouse liver microsomes; for Modified T-half (min), Average / Remarks (mouse microsomal stability study): 0.4 mg/ml, 1 µM; for Modified T-half (min), Average: limited to T Half range 3.00 - […]; for Remarks (mouse microsomal stability study): NCF = no cofactor control; for mouse liver microsomes T-half: NADPH, 1 μM; for Raw data: analyte peak area, T=0: 0 min; for Raw data: analyte peak area, T=0 / Raw data: analyte peak area, T=5 / Raw data: analyte peak area, T=10 / Raw data: analyte peak area, T=20 / Raw data: analyte peak area, T=30 / Raw data: analyte peak area, T=60: raw LC-MS area; for Raw data: analyte peak area, T=5: 5 min; for Raw data: analyte peak area, T=10: 10 min; for Raw data: analyte peak area, T=20: 20 min; for Raw data: analyte peak area, T=30: 30 min; for Raw data: analyte peak area, T=60: 60 min
# in vitro [5] = details: microsomes; for microsomal CLint at 1 μM / remaining at 5 min, 1 μM: male, CD1, mouse; for remaining at 5 min, 1 μM / remaining at 10 min, 1 µM / remaining at 20 min, 1 µM / remaining at 0.5 h, 1 µM / remaining at 1 h, 1 µM: pH 7.4, % Remaining; for remaining at 5 min, 1 μM: T=5 min; for remaining at 10 min, 1 µM / remaining at 20 min, 1 µM / remaining at 0.5 h, 1 µM / remaining at 1 h, 1 µM: mouse; for remaining at 10 min, 1 µM: T=10 min; for remaining at 20 min, 1 µM: T=20 min; for remaining at 0.5 h, 1 µM: T=30 min, 30 min; for remaining at 1 h, 1 µM: T=60 min, 60 min
# [6] = Mouse liver microsome stability in the absence of cofactors (NCF); details: 60 min, no cofactor (NCF); for remaining at 1 h, 1 µM: mouse, microsomes, pH 7.4, % Remaining, T=60 NCF; for Raw data: analyte peak area, T=60 NCF: mouse liver microsomes, raw LC-MS area
# [7] = read-out: Single dose (0h) % activity
# [8] = read-out: Single dose (4h) % activity
# [9] = pH 7.4, % Recovery n=1, replicate n=1
# [10] = pH 7.4, % Recovery n=2, replicate n=2
# [11] = pH 7.4, Avg % Recovery, average of n=2
# [12] = n=1, mouse liver microsomes, n=1
# [13] = n=2, mouse liver microsomes, n=2
# [14] = pH 7.4, mouse liver microsomes CLint, app, mouse liver microsomes, NADPH, 1 μM
smiles,measurement,setting,value
"O=C1NC(=O)C(=Cc2ccc(-c3ccccc3F)[nH]2)C(=O)N1 [2h, 5-((5-(2-Fluorophenyl)-1H-pyrrol-2-yl)methylene)pyrimidine-2,4,6(1H,3H,5H)-trione]",activity at 100 µM,HsDHODH; [7],100 ± 11%
same,activity at 100 µM,HsDHODH; [8],71 ± 7%
same,EC50,[1],5 ± 2 µM
same,EC50,[1]; Leishmania braziliensis,5.4 to 23 µM
same,CC50 at 72 h,[2],> 200 µM
same,"recovery at 6 h, 10 µM",in vitro [3]; [9],38%
same,"recovery at 6 h, 10 µM",in vitro [3]; [10],43.3%
same,"recovery at 6 h, 10 µM",in vitro [3]; [11],40.6%
same,Papp,in vitro [3],1.54 ×10⁻⁶ cm/s
same,Avg Log Pe (cm/sec),in vitro [3]; average of n=2,-5.8 cm/sec and -5.83 cm/sec
same,Avg Pe,in vitro [3]; average of n=2,1.54 ×10⁻⁶ cm/s and 1.539 ×10⁻⁶ cm/s
same,LogPe (cm/sec) n1,in vitro [3],-5.97 cm/sec
same,LogPe (cm/sec) n2,in vitro [3],-5.70 cm/sec
same,Pe (nm/sec) n=1,in vitro [3],10.8 nm/s and 10.80 nm/s
same,% Recovery n=1,in vitro [3],37.96%
same,Pe (nm/sec) n=2,in vitro [3],20.0 nm/s and 19.97 nm/s
same,% Recovery n=2,in vitro [3],43.27%
same,"Calculated T-half (min), Average",[4],1.7 min
same,"Calculated T-half (min), n=1",[4],1.70 min and 1.7 min
same,"Calculated T-half (min), n=2",[4],1.71 min and 1.7 min
same,"Modified T-half (min), Average",[4],<3.0 min
same,Remarks (mouse microsomal stability study),[4],Very fast metabolism; Low NCF
same,mouse liver microsomes T-half,[4],<3.0 min
same,microsomal CLint at 1 μM,in vitro [5]; pH 7.4,> 578 µL/min/mg
same,"remaining at 5 min, 1 μM",in vitro [5]; [12],5.9%
same,"remaining at 5 min, 1 μM",in vitro [5]; [13],5.1%
same,microsomal CLint at 1 μM,in vitro [5]; [14],> 578 µL/min/mg
same,"remaining at 10 min, 1 µM",in vitro [5]; [12],1.7%
same,"remaining at 10 min, 1 µM",in vitro [5]; [13],1.7%
same,"remaining at 20 min, 1 µM",in vitro [5]; [12],0.7%
same,"remaining at 20 min, 1 µM",in vitro [5]; [13],0.7%
same,"remaining at 0.5 h, 1 µM",in vitro [5]; [12],0.554%
same,"remaining at 0.5 h, 1 µM",in vitro [5]; [13],0.554%
same,"remaining at 1 h, 1 µM",in vitro [5]; [12],0.158%
same,"remaining at 1 h, 1 µM",in vitro [5]; [13],0.16%
same,"remaining at 1 h, 1 µM",[6]; [12],1%
same,"remaining at 1 h, 1 µM",[6]; [13],1.5%
"O=C1NC(=O)C(=C/C=C/c2ccccc2)C(=O)N1 [2i, (E)-5-(3-Phenylallylidene)pyrimidine-2,4,6(1H,3H,5H)-trione]",inhibition of HsDHODH in single-dose assays,"HsDHODH; 100 μM, with or without 4-h incubation",no inhibition
same,activity at 100 µM,HsDHODH; [7],93 ± 11%
same,activity at 100 µM,HsDHODH; [8],91 ± 9%
same,EC50,[1],10.5 ± 3.5 µM
same,EC50,[1]; Leishmania braziliensis,11 ± 5 µM
same,CC50 at 72 h,[2],193 ± 67 µM
same,"recovery at 6 h, 10 µM",in vitro [3]; [9],14.3%
same,"recovery at 6 h, 10 µM",in vitro [3]; [10],15.8%
same,"recovery at 6 h, 10 µM",in vitro [3]; [11],15%
same,Papp,in vitro [3],5.75 ×10⁻⁶ cm/s
same,Avg Log Pe (cm/sec),in vitro [3]; average of n=2,-5.2 cm/sec and -5.24 cm/sec
same,Avg Pe,in vitro [3]; average of n=2,5.75 ×10⁻⁶ cm/s
same,LogPe (cm/sec) n1,in vitro [3],-5.25 cm/sec
same,LogPe (cm/sec) n2,in vitro [3],-5.23 cm/sec
same,Pe (nm/sec) n=1,in vitro [3],56.6 nm/s and 56.58 nm/s
same,% Recovery n=1,in vitro [3],14.26%
same,Pe (nm/sec) n=2,in vitro [3],58.4 nm/s and 58.42 nm/s
same,% Recovery n=2,in vitro [3],15.77%
same,"Calculated T-half (min), Average",[4],2.7 min
same,"Calculated T-half (min), n=1",[4],2.74 min and 2.7 min
same,"Calculated T-half (min), n=2",[4],2.73 min and 2.7 min
same,"Raw data: analyte peak area, T=0",[4]; replicate 1 (left block),4760
same,"Raw data: analyte peak area, T=0",[4]; replicate 2 (right block),4151
same,"Modified T-half (min), Average",[4],<3.0 min
same,Remarks (mouse microsomal stability study),[4],Very fast metabolism; Low NCF
same,"Raw data: analyte peak area, T=5",[4]; replicate 1 (left block),1438
same,"Raw data: analyte peak area, T=5",[4]; replicate 2 (right block),1160
same,"Raw data: analyte peak area, T=10",[4]; replicate 1 (left block),0
same,"Raw data: analyte peak area, T=10",[4]; replicate 2 (right block),0
same,"Raw data: analyte peak area, T=20",[4]; replicate 1 (left block),0
same,"Raw data: analyte peak area, T=20",[4]; replicate 2 (right block),0
same,"Raw data: analyte peak area, T=30",[4]; replicate 1 (left block),0
same,"Raw data: analyte peak area, T=30",[4]; replicate 2 (right block),0
same,"Raw data: analyte peak area, T=60",[4]; replicate 1 (left block),0
same,"Raw data: analyte peak area, T=60",[4]; replicate 2 (right block),0
same,mouse liver microsomes T-half,[4],<3.0 min
same,microsomal CLint at 1 μM,in vitro [5]; pH 7.4,> 578 µL/min/mg
same,"remaining at 5 min, 1 μM",in vitro [5]; [12],28.2%
same,"remaining at 5 min, 1 μM",in vitro [5]; [13],28.1%
same,microsomal CLint at 1 μM,in vitro [5]; [14],> 578 µL/min/mg
same,"remaining at 10 min, 1 µM",in vitro [5]; [12],0%
same,"remaining at 10 min, 1 µM",in vitro [5]; [13],0%
same,"remaining at 20 min, 1 µM",in vitro [5]; [12],0%
same,"remaining at 20 min, 1 µM",in vitro [5]; [13],0%
same,"remaining at 0.5 h, 1 µM",in vitro [5]; [12],0%
same,"remaining at 0.5 h, 1 µM",in vitro [5]; [13],0%
same,"remaining at 1 h, 1 µM",in vitro [5]; [12],0%
same,"remaining at 1 h, 1 µM",in vitro [5]; [13],0%
same,"Raw data: analyte peak area, T=60 NCF",[6]; replicate 1 (left block),1230
same,"Raw data: analyte peak area, T=60 NCF",[6]; replicate 2 (right block),835
same,"remaining at 1 h, 1 µM",[6]; [12],26.3%
same,"remaining at 1 h, 1 µM",[6]; [13],19.3%
